The source of these data is patent US20230286970A1, “NOVEL OXADIAZOLE-BASED SELECTIVE HDAC6 INHIBITORS” (ITALFARMACO S.P.A., priority 2020, published 2023).

Molecules are shown by their SMILES. pIC50: −log10 of the molar value.

Data set [1] is described as follows: Stability to Phase I metabolism in human S9 liver fraction. The note with it: after 90 minutes, 37° C.
A further data set concerns the target recombinant human HDAC1 (Homo sapiens (Human), UniProt Q13547). Kind of data set: Enzymatic screening, HDAC1 inhibition (fluorogenic FdL_G substrate). It is filed as biochemical. The method, boiled down: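 Recombinant human HDAC1 inhibition was measured fluorometrically using the FLUOR DE LYS-Green (FdL_G) substrate. Compounds at 8 doses (1% DMSO final) in Tris-HCl pH 8 buffer with NaCl, Tween-20 and glycerol were preincubated in triplicate with enzyme and 1 mg/mL BSA, then given substrate. Developer I plus 2 μM TSA was added, and fluorescence read after 25 minutes in the dark.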

Data set [2] is described as follows: Stability to Phase I metabolism in rat S9 liver fraction. The note with it: after 90 minutes, 37° C.
In another data set the target is HDAC7 (Homo sapiens (Human), UniProt Q8WUI4). Nature of the data set: Enzymatic screening, HDAC7 inhibition. It is filed as biochemical. The procedure: (§1) For each test compound, 100× concentrated DMSO solutions at 8 doses were prepared and then diluted in assay buffer (25 mM Tris-HCl, pH 8, 130 mM NaCl, 0.05% Tween-20, 10% Glycerol) to obtain 5× concentrated solutions in relation to the final concentrations (typical final concentration range—6.4-200000 nM or 0.18-50000 nM, final DMSO content—1%). Then 10 μL solution of each test compound concentration were placed on a 96-well plate in triplicate and 15 μL of 3.33× concentrated enzyme solution in the assay buffer containing 3.33× concentrated BSA (final BSA concentration—2 mg/mL for HDAC4, HDAC5 and HDAC9 or 1 mg/mL for other isoforms) and in the case of HDAC6-3.33× concentrated TCEP (final TCEP concentration—200 μM) were added to each well. After a period of preincubation (incubation times and temperatures vary for different isoforms and are shown in table 1) 25 μL of solution containing the substrate were added. As substrate, FLUOR DE LYS® deacetylase substrate (Enzo Life Sciences, cat: BML-KI104, FdL), FLUOR DE LYS®-Green substrate (Enzo Life Sciences, cat: BML-KI572, FdL_G) or Boc-Lys(Tfa)-AMC (Bachem, cat: 4060676.005, Tfal)—2× concentrated solution in assay buffer were used. Following a reaction period (reaction times and temperatures vary for different isoforms and are reported in Table 1), 50 μL of the development solution consisting of concentrate FLUOR DE LYS® developer I (Enzo Life Sciences, ca: BML-KI105), diluted 200 times in buffer (50 mM Tris-HCl, pH 8, 137 mM NaCl, 2.7 mM KCl, 1 mM MgCl2) plus 2 μM TSA was added and, after 25 minutes at room temperature in the dark, using the Victor 1420 Multilabel Counter Perkin Elmer Wallac instrument, the fluorescence reading was carried out.

The target in another data set is HDAC8 (Homo sapiens (Human), UniProt Q9BY41). Nature of the data set: Enzymatic screening, HDAC8 inhibition. It counts as biochemical. How it is done: as §1
The target of the next data set is HDAC4 (Homo sapiens (Human), UniProt P56524). Nature of the data set: Enzymatic screening, HDAC4 inhibition. It is filed as biochemical. The procedure: as §1
Data set [3] in a line: Stability in human plasma. The settings on record: after 4 hours, 37° C.
In the next data set the target is HDAC11 (Homo sapiens (Human), UniProt Q96DB2). Nature of the data set: Enzymatic screening, HDAC11 inhibition. It is filed as biochemical. The procedure:
as §1

Another data set addresses HDAC9 (Homo sapiens (Human), UniProt Q9UKV0). Nature of the data set: Enzymatic screening, HDAC9 inhibition. It counts as biochemical. How it is done:
as §1

The next data set concerns the target recombinant human HDAC6 (Homo sapiens (Human), UniProt Q9UBN7). Nature of the data set: Enzymatic screening, HDAC6 inhibition (fluorogenic FdL_G substrate). It counts as biochemical. In a few lines:
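Enzyme was preincubated with compound (8 doses, triplicate, 1% DMSO) in 25 mM Tris-HCl pH 8, 130 mM NaCl, 0.05% Tween-20, 10% glycerol, with BSA. A FLUOR DE LYS-Green substrate was then added, and fluorescence was read after developer plus 2 μM TSA.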

A short description of another data set: Stability in rat plasma. The settings on record: after 4 hours, 37° C.
A further data set addresses HDAC10 (Homo sapiens (Human), UniProt Q969S8). Nature of the data set: Enzymatic screening, HDAC10 inhibition. It counts as biochemical. The procedure: as §1
For data set [4], the system named is α-tubulin acetylation in 697 cell line. Nature of the data set: In vitro α-tubulin acetylation in 697 cell line (ELISA). It is filed as cell-based. The note with it: 16 hours, read-out: fold increase @ 1 uM TubAc (ratio of acetylated tubulin and total tubulin towards control). In a few lines:
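B 697 cells in RPMI 10% FCS were treated for 16 h at 37 °C with compound at 1000, 333, 111 or 37 nM. Lysate (0.3 μg protein) was coated and probed by ELISA for acetylated and total α-tubulin, read at 450 nm. The acetylated/total ratio is given as fold over untreated control.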

A further data set deals with HDAC5 (Homo sapiens (Human), UniProt Q9UQL6). Nature of the data set: Enzymatic screening, HDAC5 inhibition. It counts as biochemical. How it is done: as §1
Chain of HDAC5 (Q9UQL6 whole entry): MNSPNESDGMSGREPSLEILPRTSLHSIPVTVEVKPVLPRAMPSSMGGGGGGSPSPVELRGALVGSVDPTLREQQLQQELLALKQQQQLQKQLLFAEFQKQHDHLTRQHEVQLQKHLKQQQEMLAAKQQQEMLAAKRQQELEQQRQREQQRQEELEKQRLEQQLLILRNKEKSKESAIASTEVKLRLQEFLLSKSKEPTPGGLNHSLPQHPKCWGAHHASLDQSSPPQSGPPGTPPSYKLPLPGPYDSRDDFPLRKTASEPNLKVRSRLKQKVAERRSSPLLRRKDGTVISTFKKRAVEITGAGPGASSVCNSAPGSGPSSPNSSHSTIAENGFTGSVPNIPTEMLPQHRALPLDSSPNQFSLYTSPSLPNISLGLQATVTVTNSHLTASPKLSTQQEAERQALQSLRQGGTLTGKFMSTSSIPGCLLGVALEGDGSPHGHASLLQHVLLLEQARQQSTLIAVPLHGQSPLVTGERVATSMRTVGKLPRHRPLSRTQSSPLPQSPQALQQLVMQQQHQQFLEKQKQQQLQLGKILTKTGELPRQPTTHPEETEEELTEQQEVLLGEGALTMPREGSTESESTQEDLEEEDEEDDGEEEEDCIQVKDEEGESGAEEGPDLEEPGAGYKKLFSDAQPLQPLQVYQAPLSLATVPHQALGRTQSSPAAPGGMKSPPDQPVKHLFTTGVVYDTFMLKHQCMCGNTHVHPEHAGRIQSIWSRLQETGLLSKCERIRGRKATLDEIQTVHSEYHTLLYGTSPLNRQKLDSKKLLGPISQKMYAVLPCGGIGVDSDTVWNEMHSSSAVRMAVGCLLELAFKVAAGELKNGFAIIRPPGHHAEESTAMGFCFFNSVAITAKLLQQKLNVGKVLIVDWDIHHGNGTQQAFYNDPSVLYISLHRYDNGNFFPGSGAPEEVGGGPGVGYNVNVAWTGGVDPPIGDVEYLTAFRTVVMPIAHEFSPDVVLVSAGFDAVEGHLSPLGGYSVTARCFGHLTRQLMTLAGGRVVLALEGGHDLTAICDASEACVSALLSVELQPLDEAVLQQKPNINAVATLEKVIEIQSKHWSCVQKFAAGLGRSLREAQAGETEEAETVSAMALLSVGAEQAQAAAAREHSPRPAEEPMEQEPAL
The next data set has as its target HDAC3 (Homo sapiens (Human), UniProt O15379). Nature of the data set: Enzymatic screening, HDAC3 inhibition. It counts as biochemical. How it is done: as §1
In a further data set the target is HDAC2 (Homo sapiens (Human), UniProt Q92769). Nature of the data set: Enzymatic screening, HDAC2 inhibition. It counts as biochemical. The procedure:
as §1

Chain of HDAC11 (Q96DB2 whole entry): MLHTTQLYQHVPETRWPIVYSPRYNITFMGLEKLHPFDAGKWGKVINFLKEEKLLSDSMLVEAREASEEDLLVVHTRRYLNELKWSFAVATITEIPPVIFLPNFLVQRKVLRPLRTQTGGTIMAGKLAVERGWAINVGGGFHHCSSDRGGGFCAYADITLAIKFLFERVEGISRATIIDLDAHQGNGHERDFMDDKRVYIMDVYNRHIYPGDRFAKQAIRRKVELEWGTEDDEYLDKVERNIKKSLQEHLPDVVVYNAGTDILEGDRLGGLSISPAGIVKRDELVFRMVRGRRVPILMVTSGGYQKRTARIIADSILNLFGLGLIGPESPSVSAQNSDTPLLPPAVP
Chain of HDAC3 (O15379 whole entry): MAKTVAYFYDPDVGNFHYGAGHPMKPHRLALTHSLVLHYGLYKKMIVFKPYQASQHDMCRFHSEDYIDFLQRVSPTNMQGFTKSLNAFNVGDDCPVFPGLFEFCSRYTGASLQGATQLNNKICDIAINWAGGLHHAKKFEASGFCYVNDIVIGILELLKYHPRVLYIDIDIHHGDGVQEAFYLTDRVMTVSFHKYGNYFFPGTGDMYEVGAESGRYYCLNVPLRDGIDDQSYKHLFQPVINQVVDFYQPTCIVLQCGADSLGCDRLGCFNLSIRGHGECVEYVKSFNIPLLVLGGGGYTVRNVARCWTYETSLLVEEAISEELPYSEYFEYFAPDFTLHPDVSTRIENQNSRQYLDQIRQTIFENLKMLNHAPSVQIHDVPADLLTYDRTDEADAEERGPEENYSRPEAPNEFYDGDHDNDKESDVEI
Chain of HDAC3 (Q9Y618 395-489 partner): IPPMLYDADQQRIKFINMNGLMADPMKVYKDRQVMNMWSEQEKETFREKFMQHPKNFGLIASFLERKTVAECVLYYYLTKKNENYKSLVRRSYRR
Chain of HDAC9 (Q9UKV0 whole entry): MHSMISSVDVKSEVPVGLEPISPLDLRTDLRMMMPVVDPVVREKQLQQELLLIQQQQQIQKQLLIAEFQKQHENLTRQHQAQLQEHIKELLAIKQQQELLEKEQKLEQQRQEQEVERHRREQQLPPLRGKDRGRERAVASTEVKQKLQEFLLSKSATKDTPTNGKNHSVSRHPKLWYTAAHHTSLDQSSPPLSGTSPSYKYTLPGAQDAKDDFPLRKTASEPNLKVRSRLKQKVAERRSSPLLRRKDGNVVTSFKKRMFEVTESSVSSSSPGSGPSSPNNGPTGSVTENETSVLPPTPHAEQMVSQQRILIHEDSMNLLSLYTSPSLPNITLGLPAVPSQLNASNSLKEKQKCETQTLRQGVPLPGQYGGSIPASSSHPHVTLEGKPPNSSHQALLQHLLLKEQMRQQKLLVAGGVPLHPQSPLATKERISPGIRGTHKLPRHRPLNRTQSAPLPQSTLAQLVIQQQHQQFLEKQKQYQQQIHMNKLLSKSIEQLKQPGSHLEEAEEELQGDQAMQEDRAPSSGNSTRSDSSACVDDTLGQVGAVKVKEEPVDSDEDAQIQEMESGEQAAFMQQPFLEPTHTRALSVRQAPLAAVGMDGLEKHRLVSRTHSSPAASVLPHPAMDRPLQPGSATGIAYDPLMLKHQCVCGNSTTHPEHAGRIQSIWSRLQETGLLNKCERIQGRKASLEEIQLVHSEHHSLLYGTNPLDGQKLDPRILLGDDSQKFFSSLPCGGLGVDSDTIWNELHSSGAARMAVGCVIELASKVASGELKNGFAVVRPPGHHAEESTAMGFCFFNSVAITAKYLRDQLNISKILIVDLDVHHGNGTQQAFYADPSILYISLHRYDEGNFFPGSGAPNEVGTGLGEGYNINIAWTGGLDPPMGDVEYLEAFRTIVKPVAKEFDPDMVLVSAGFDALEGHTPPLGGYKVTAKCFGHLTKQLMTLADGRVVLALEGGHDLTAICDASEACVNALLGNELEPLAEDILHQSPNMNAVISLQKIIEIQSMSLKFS
Chain of recombinant human HDAC6 (Q9UBN7 whole entry): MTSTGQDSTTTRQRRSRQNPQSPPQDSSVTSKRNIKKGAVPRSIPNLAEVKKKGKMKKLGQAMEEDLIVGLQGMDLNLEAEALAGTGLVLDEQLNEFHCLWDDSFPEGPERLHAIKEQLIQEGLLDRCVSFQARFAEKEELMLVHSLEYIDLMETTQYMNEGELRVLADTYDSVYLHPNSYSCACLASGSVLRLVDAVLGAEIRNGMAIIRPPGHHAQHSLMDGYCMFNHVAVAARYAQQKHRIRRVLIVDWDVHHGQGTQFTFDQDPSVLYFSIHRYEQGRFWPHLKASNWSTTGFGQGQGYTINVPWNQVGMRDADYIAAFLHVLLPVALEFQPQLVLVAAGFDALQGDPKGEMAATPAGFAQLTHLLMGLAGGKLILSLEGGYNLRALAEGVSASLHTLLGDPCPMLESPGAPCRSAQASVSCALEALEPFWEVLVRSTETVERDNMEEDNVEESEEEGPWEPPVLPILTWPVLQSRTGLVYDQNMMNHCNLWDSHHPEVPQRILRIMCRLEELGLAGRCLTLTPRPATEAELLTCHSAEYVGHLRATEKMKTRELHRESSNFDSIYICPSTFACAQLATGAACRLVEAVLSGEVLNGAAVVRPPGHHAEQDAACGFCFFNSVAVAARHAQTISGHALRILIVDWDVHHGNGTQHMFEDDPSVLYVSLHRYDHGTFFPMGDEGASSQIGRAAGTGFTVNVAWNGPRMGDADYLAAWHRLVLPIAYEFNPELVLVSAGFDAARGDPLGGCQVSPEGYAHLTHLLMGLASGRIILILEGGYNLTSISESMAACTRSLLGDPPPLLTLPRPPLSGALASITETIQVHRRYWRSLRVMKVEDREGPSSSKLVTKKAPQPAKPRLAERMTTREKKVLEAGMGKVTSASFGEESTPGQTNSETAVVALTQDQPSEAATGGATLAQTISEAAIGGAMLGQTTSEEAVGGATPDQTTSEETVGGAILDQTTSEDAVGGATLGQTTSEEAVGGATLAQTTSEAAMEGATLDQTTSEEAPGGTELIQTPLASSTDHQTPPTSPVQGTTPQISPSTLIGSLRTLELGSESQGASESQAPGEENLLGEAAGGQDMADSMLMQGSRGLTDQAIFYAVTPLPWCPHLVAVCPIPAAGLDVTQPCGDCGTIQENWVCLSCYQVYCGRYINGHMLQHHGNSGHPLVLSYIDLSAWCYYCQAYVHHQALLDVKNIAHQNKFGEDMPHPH
Chain of HDAC10 (Q969S8 whole entry): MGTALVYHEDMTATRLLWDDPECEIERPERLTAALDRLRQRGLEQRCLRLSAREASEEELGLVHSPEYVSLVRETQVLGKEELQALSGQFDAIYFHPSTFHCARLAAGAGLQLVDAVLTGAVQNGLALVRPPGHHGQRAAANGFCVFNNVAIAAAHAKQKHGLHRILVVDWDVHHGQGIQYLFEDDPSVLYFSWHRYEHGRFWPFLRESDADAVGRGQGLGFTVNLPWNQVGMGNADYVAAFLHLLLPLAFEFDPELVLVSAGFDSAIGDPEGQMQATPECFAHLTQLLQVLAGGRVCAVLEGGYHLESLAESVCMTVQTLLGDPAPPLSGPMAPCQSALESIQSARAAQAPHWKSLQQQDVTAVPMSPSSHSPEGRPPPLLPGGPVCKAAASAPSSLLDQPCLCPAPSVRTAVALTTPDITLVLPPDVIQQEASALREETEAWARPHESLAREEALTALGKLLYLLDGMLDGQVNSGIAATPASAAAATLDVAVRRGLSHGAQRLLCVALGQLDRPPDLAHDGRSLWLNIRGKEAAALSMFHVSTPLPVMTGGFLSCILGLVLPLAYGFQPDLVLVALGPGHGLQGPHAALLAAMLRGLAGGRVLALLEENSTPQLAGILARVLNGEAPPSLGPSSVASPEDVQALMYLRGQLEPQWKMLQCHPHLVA

`Cn1c(N)nc2cc(-c3cn(Cc4ccc(-c5nnc(C(F)F)o5)cc4)nn3)ccc21` [Compd. 23, 5-(1-(4-(5-(difluoromethyl)-1,3,4-oxadiazol-2-yl)benzyl)-1H-1,2,3-triazol-4-yl)-1-methyl-1H-benzo[d]imidazol-2-amine]: in data set [1], the “residual percentage in HUMAN S9 FRACTION” value is 88%. Besides, the pIC50 on recombinant human HDAC1 is 4.52; at HDAC7, less than 4.52; against HDAC8, 6.25; against HDAC4, less than 4.52; against HDAC11 it was less than 4.52; on HDAC9, less than 4.52. The pIC50 is 7.89 at recombinant human HDAC6; less than 4.52 against HDAC10; less than 4.52 on HDAC5; 4.58 at HDAC3; less than 4.52 against HDAC2. Further, the “residual percentage in RAT S9 FRACTION” value in data set [2] was found to be 96%. The “residual percentage in HUMAN PLASMA” value in [3] came to 88%. In addition, the “residual percentage in RAT PLASMA” value in the data set “Stability in rat plasma” was found to be 92%. Besides, the fold induction at 1 µM in data set [4] was 31.

With `O=C(Nc1cc(-c2nnn(Cc3ccc(-c4nnc(C(F)F)o4)cn3)n2)ccc1O)N1CCOCC1` [compound 2, N-(5-(2-((5-(5-(difluoromethyl)-1,3,4-oxadiazol-2-yl)pyridin-2-yl)methyl)-2H-tetrazol-5-yl)-2-hydroxyphenyl)morpholine-4-carboxamide], in [1], the “residual percentage in HUMAN S9 FRACTION” value came to 70%. Besides, the pIC50 at recombinant human HDAC1 was less than 3.70; against HDAC7, less than 4.52; at HDAC8 it was less than 3.70; against HDAC4, less than 4.52; on HDAC11, less than 4.52; at HDAC9, less than 4.52. Also, the pIC50 is 8.00 at recombinant human HDAC6; less than 4.52 against HDAC10; less than 4.52 against HDAC5; less than 4.52 against HDAC3; less than 4.52 at HDAC2. The “residual percentage in RAT S9 FRACTION” value in data set [2] was determined as 61%. For the same compound, the “residual percentage in HUMAN PLASMA” value in [3] came out at 87%. Also, in the data set “Stability in rat plasma”, the “residual percentage in RAT PLASMA” value came to 90%. For the same compound, the fold induction at 1 µM in data set [4] came out at 26.

For `O=C1NCc2ccc(-c3nnn(Cc4ccc(-c5nnc(C(F)F)o5)cn4)n3)cc21` [compound 4, 6-(2-((5-(5-(difluoromethyl)-1,3,4-oxadiazol-2-yl)pyridin-2-yl)methyl)-2H-tetrazol-5-yl)isoindolin-1-one], the “residual percentage in HUMAN S9 FRACTION” value in data set [1] was 77%. Further, the pIC50 on recombinant human HDAC1 was less than 3.70; at HDAC7, less than 4.52; against HDAC8 it was less than 3.70; against HDAC4, less than 4.52; against HDAC11, less than 4.52; against HDAC9 it was less than 4.52. The pIC50 at recombinant human HDAC6 is 7.92; against HDAC10, less than 4.52; on HDAC5, less than 4.52; against HDAC3, less than 4.52; against HDAC2 it was less than 4.52. Also, the “residual percentage in RAT S9 FRACTION” value in [2] is 77%. Further, in [3], the “residual percentage in HUMAN PLASMA” value worked out at 80%. Also, the “residual percentage in RAT PLASMA” value in “Stability in rat plasma” is listed as 78%. Besides, the fold induction at 1 µM in [4] is 13.

For `Nc1ccc(-c2cn(Cc3ccc(-c4nnc(C(F)F)o4)cn3)nn2)cn1` [compound 5, 5-(1-((5-(5-(difluoromethyl)-1,3,4-oxadiazol-2-yl)pyridin-2-yl)methyl)-1H-1,2,3-triazol-4-yl)pyridin-2-amine], in [1], the “residual percentage in HUMAN S9 FRACTION” value is 92%. Also, the pIC50 is less than 3.70 on recombinant human HDAC1; less than 4.52 against HDAC7; less than 3.70 against HDAC8; less than 4.52 against HDAC4; less than 4.52 against HDAC11; less than 4.52 at HDAC9. The pIC50 was 7.92 at recombinant human HDAC6; less than 4.52 on HDAC10; less than 4.52 on HDAC5; less than 4.52 against HDAC3; less than 4.52 against HDAC2. For the same compound, in data set [2], the “residual percentage in RAT S9 FRACTION” value came out at 93%. Also, the “residual percentage in HUMAN PLASMA” value in [3] is reported as 74%. Further, the “residual percentage in RAT PLASMA” value in the data set “Stability in rat plasma” was determined as 70%. In [4], the fold induction at 1 µM amounted to 19.

In the case of `O=C(Nc1cccc(-c2cn(Cc3ccc(-c4nnc(C(F)F)o4)cn3)nn2)c1)N1CCOCC1` [compound 6, N-(3-(1-((5-(5-(difluoromethyl)-1,3,4-oxadiazol-2-yl)pyridin-2-yl)methyl)-1H-1,2,3-triazol-4-yl)phenyl)morpholine-4-carboxamide], the “residual percentage in HUMAN S9 FRACTION” value in [1] is 99%. The pIC50 was less than 3.70 at recombinant human HDAC1; less than 4.52 on HDAC7; less than 3.70 against HDAC8; less than 4.52 on HDAC4; less than 4.52 against HDAC11; less than 4.52 at HDAC9. The negative logarithm of the IC50 (pIC50) on recombinant human HDAC6 was 7.89; against HDAC10, less than 4.52; on HDAC5, less than 4.52; against HDAC3, less than 4.52; against HDAC2, less than 4.52. For the same compound, the “residual percentage in RAT S9 FRACTION” value in data set [2] is given as 93%. In addition, the “residual percentage in HUMAN PLASMA” value in data set [3] is given as 93%. Besides, in “Stability in rat plasma”, the “residual percentage in RAT PLASMA” value stood at 93%. Besides, the fold induction at 1 µM in data set [4] is 19.

As for `Nc1nc2cc(-c3nnn(Cc4ccc(-c5nnc(C(F)F)o5)cn4)n3)ccc2o1` [compound 7, 5-(2-((5-(5-(difluoromethyl)-1,3,4-oxadiazol-2-yl)pyridin-2-yl)methyl)-2H-tetrazol-5-yl)benzo[d]oxazol-2-amine], in [1], the “residual percentage in HUMAN S9 FRACTION” value was 92%. For the same compound, the pIC50 at recombinant human HDAC1 is less than 3.70; against HDAC7, less than 4.52; at HDAC8, less than 3.70; against HDAC4, less than 4.52; on HDAC11, less than 4.52; at HDAC9, less than 4.52. Also, the pIC50 on recombinant human HDAC6 is 7.89; against HDAC10, less than 4.52; against HDAC5, less than 4.52; against HDAC3, less than 4.52; against HDAC2, less than 4.52. The “residual percentage in RAT S9 FRACTION” value in data set [2] is listed as 96%. In addition, the “residual percentage in HUMAN PLASMA” value in data set [3] is 76%. The “residual percentage in RAT PLASMA” value in “Stability in rat plasma” is given as 81%. The fold induction at 1 µM in data set [4] was 16.

For `FC(F)c1nnc(-c2ccc(Cn3cc(-c4ccc(NC5=NCCN5)cc4)nn3)cc2)o1` [compound 10, N-(4-(1-(4-(5-(difluoromethyl)-1,3,4-oxadiazol-2-yl)benzyl)-1H-1,2,3-triazol-4-yl)phenyl)-4,5-dihydro-1H-imidazol-2-amine], the “residual percentage in HUMAN S9 FRACTION” value in data set [1] was determined as 95%. Besides, the pIC50 is less than 3.70 at recombinant human HDAC1; less than 4.52 against HDAC7; 4.53 at HDAC8; less than 4.52 against HDAC4; less than 4.52 against HDAC11; less than 4.52 against HDAC9. Besides, the pIC50 is 7.80 on recombinant human HDAC6; less than 4.52 on HDAC10; less than 4.52 against HDAC5; less than 4.52 against HDAC3; less than 4.52 on HDAC2. In addition, in [2], the “residual percentage in RAT S9 FRACTION” value turned out to be 95%. In data set [3], the “residual percentage in HUMAN PLASMA” value turned out to be 89%. In addition, in the data set “Stability in rat plasma”, the “residual percentage in RAT PLASMA” value is given as 97%. Moreover, the fold induction at 1 µM in data set [4] was 11.
